Residues, ends and D or L forms follow the SMILES beside them. No end group written: not given here. *: point of attachment. Biotin = O=C1N[C@H]2[C@H](CS[C@H]2CCCCC(=O)*)N1

The target of one assay is T1, KIX domain of CBP (Homo sapiens, UniProt Q92793).
T1 construct: GST (N, cleaved yes); His6 (N, cleaved yes); made in house
Kind of assay: Bio-layer interferometry (BLI) of immobilized 9aaTAD peptides with KIX domain. In kind it is binding. The note with it: for Kd: BLI Octet RED96e, biotinylated peptide on streptavidin SA biosensors, KIX 0.31-5.0 μM, 20 mM sodium phosphate pH 6.0, 50 mM NaCl, 30 °C, steady-state 1:1 fit, average of pentaplicate, read-out: KD(apparent). How it is done: Bio-layer interferometry on Octet RED96e (ForteBio) was used for the analysis of interaction between KIX domain and proposed activation domains. All experiments were performed at 30 °C at 1000 rpm shaking. Streptavidin-bearing SA biosensors (ForteBio) were immersed for 300 s into the assay buffer (20 mM sodium phosphate pH 6.0, 50 mM NaCl) containing 60 μM biotinylated MLL, MYC or NMY peptide, respectively. After subsequent wash in the assay buffer, the final steady response of ligand reached 0.6–0.8 nm. Parallel blank sensor was treated the same way with pure assay buffer being used instead of biotinylated peptide solution in the immobilization step. For the binding assay, all sensors were used in parallel applying the following procedure: 120 s baseline in the assay buffer, 180 s association in the assay buffer containing increasing concentration of KIX domain for each cycle (0.31, 0.63, 1.25, 2.5 and 5.0 μM), 240 s dissociation in the assay buffer and 3 repetitions of 30 s regeneration in 50 mM NaOH followed by 30 s assay buffer wash. Each binding experiment was performed in pentaplicate and the data were processed using Data Analysis 11.1 evaluation SW (ForteBio). Obtained binding curves were blank-subtracted and fitted by a 1:1 binding model using steady state analysis. Final KD (apparent) values were calculated as an average of all measurements.
(BLI is a label-free optical method that tracks binding on a fibre tip over time.)

Assay [1] relates to lacZ reporter driven by the lexA operator. Kind of assay: One hybrid transactivation (β-galactosidase reporter) assay with LexA hybrids in yeast strain L40. The class given is cell-based, Saccharomyces cerevisiae. The note with it: for ß-Gal: raw β-galactosidase activity; for Reporter activation (average value in %): β-galactosidase activity of LexA hybrid, % of positive control p53 construct 6p53 set to 100%, mean ± SD, n = 3; for normalized value in %: β-galactosidase, % of 6p53 mean; for activation function (times): one hybrid assay, presence versus absence of 9aaTAD (region 100–108) in the construct.

The mark [2] stands for this setting: replicate 1 (first sample of the construct).
The mark [3] stands for this setting: replicate 2 (second sample of the construct).
The mark [4] stands for this setting: replicate 3 (third sample of the construct).

T1 sequence (Q92793 587-666 limits assumed): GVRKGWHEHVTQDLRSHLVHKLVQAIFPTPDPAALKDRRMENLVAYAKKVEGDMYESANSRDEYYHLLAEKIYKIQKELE

Turning to `CC[C@H](C)[C@H](NC(=O)[C@H](CC(=O)O)NC(=O)[C@H](CO)NC(=O)[C@@H]1CCCN1C(=O)[C@H](CC(C)C)NC(=O)[C@@H](NC(=O)[C@H](CC(N)=O)NC(=O)[C@H](CO)NC(=O)CNC(=O)CCCC[C@@H]1SC[C@@H]2NC(=O)N[C@@H]21)[C@@H](C)CC)C(=O)N[C@@H](CCSC)C(=O)N[C@@H](CC(=O)O)C(=O)N[C@@H](Cc1ccccc1)C(=O)N[C@H](C(=O)N[C@@H](CC(C)C)C(=O)N[C@@H](CCCCN)C(=O)N[C@@H](CC(N)=O)C(=O)N[C@H](C(=O)O)[C@@H](C)O)C(C)C` [MLL, reference compound] (Biotin-GSNILPSDIMDFVLKNT-OH), at KIX domain of CBP, the Kd is 1170 ± 210 nM.
As for `CSCC[C@H](NC(=O)[C@H](CCC(=O)O)NC(=O)[C@@H](NC(=O)[C@@H](NC(=O)[C@H](Cc1c[nH]c2ccccc12)NC(=O)[C@H](CO)NC(=O)[C@@H]1CCCN1C(=O)[C@@H]1CCCN1C(=O)[C@H](CCC(=O)O)NC(=O)[C@H](CO)NC(=O)[C@H](CO)NC(=O)[C@H](CO)NC(=O)CNC(=O)CCCC[C@@H]1SC[C@@H]2NC(=O)N[C@@H]21)C(C)C)[C@@H](C)O)C(=O)N[C@@H](CC(C)C)C(=O)N[C@@H](CC(C)C)C(=O)N[C@@H](CCC(=O)O)C(=O)N[C@@H](CC(N)=O)C(=O)O` [N-Myc] (Biotin-GSSSEPPSWVTEMLLEN-OH), the Kd on KIX domain of CBP is 880 ± 110 nM.
With `CC(C)C[C@H](NC(=O)[C@H](CC(=O)O)NC(=O)[C@H](CC(=O)O)NC(=O)[C@H](CC(C)C)NC(=O)[C@H](CC(=O)O)NC(=O)[C@H](CC(C)C)NC(=O)[C@@H](NC(=O)[C@H](CC(=O)O)NC(=O)[C@H](Cc1c[nH]c2ccccc12)NC(=O)[C@H](CO)NC(=O)[C@@H](NC(=O)[C@H](CC(=O)O)NC(=O)CNC(=O)[C@H](CO)NC(=O)[C@H](CO)NC(=O)CNC(=O)CCCC[C@@H]1SC[C@@H]2NC(=O)N[C@@H]21)C(C)C)[C@@H](C)O)C(=O)N[C@@H](CC(=O)O)C(=O)O` [Sp1-Ac] (Biotin-GSSGDVSWDTLDLDDLD-OH), the Kd on KIX domain of CBP was found to be 9770 ± 1570 nM.
On the same count and under the same terms, for `CSCC[C@H](NC(=O)[C@H](CCC(=O)O)NC(=O)[C@H](CC(C)C)NC(=O)[C@H](CCC(N)=O)NC(=O)[C@@H](NC(=O)[C@H](CO)NC(=O)[C@H](CO)NC(=O)[C@H](CO)NC(=O)CNC(=O)CCCC[C@@H]1SC[C@@H]2NC(=O)N[C@@H]21)[C@@H](C)O)C(=O)N[C@H](C(=O)N[C@H](C(=O)N[C@@H](CCC(=O)O)C(=O)N[C@@H](CC(C)C)C(=O)N[C@@H](CC(C)C)C(=O)NCC(=O)O)[C@@H](C)O)C(C)C` [c-Myc] (Biotin-GSSSTQLEMVTELLG-OH) the value was 2160 ± 1170 nM.
Regarding “Biotin—GSS- GQ VSWQ T LQLQ NLQ [native Sp1, biotinylated native Sp1 9aaTAD peptide, negative control for BLI, reference compound]”, on KIX domain of CBP (BLI, KIX in the 3–16 μM range, negative control), the “Binding to KIX” value is reported as “did not bind”.
Turning to “c-Myc region 69-103: LexA hybrid construct of c-Myc region 69–103 without 9aaTAD (ELLPTPPLSPSRRSGLCSPSYVAVTPFSLRGDNDG; LexA fusion; UniProt P01106 69-103, looked up, fragment)”, the ß-Gal is on record as 74 in assay [1] (setting [2]), 83 in assay [1] (setting [3]) and 71 in assay [1] (setting [4]). Also, the “Reporter activation (average value in %)” value in assay [1] stood at 29%. Further, the “normalized value in %” value in assay [1] (setting [2]) was 27%; in assay [1] (setting [3]), 31%; in assay [1] (setting [4]), 26%.
On to “c-Myc region 69-108: LexA hybrid construct of c-Myc region 69–108 with 9aaTAD (ELLPTPPLSPSRRSGLCSPSYVAVTPFSLRGDNDGGGGSF; LexA fusion; UniProt P01106 69-108, looked up, fragment)”, for which the “activation function (times)” value in assay [1] came to 3 times. Also, the values for the ß-Gal in assay [1] (setting [2]), in assay [1] (setting [3]) and in assay [1] (setting [4]) were 255, 241 and 242, respectively. In addition, the “Reporter activation (average value in %)” value in assay [1] is listed as 90%. Also, the entries for the “normalized value in %” value in assay [1] (setting [2]), in assay [1] (setting [3]) and in assay [1] (setting [4]) were 93%, 88% and 89%, respectively.
As for “c-Myc region 98-108: LexA hybrid construct of alone-standing c-Myc 9aaTAD activation domain (RGDNDGGGGSF; also: LexA fusion; UniProt P01106 98-108, looked up, fragment)”, the “activation function (times)” value in assay [1] worked out at 67 times. The results for the ß-Gal in assay [1] (setting [2]), in assay [1] (setting [3]) and in assay [1] (setting [4]) were 191, 185 and 169, respectively. The “Reporter activation (average value in %)” value in assay [1] is 67%. Also, the figures for the “normalized value in %” value in assay [1] (setting [2]), in assay [1] (setting [3]) and in assay [1] (setting [4]) were 70%, 68% and 62%, respectively.
